# Results from US9708336B2, “Metallo-beta-lactamase inhibitors” (priority 2014, dated 2017).
# Where two headings read alike, the source gives them in different places.
# Key:
# NDM-1 = NDM-1 (Klebsiella pneumoniae, UniProt C7C422); assay: biochemical; format: biochemical; settings: read-out: NDM-1 IC50
# IMP-1 = IMP-1 (Serratia marcescens, UniProt P52699); assay: biochemical; format: biochemical; settings: read-out: IMP-1 IC50
# VIM-1 = VIM-1 (Pseudomonas aeruginosa (strain ATCC 15692 / DSM 22644 / CIP 104116 / JCM 14847 / LMG 12228 / 1C / PRS 101 / PAO1), UniProt A0A0F7KYQ8); assay: Enzyme activity: determination of IC50, fluorescence assay with CCF2-FA substrate (VIM-1); format: biochemical
# [1] = tested on: Escherichia coli expressing NDM-1 (CLB30016); assay: Antibiotic potentiation activity: synergistic concentration (MITC95) with imipenem, OD600 growth; format: cell-based; settings: for Escherichia coli expressing NDM-1 (CLB 30016) MITC95: concentration giving 95% inhibition of bacterial growth; for Escherichia coli MITC95: Escherichia coli expressing NDM-1 (CLB30016), 95% growth inhibition
# In short: (§1)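 Absorbance after a 22–24 h, 35 °C incubation served as the read-out. Wells held bacteria (saline suspension diluted 1:100 into 1.1× CAMHB), imipenem at 4 μg/ml final or optionally 1 μg/ml, and test compound.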
# [2] = tested on: Klebsiella pneumoniae expressing VIM-1 (IHMA599644); assay: as above; format: cell-based; settings: for Klebsiella pneumoniae expressing VIM-1 (IHMA 599644) MITC95: concentration giving 95% inhibition of bacterial growth; for Klebsiella pneumoniae MITC95: Klebsiella pneumoniae expressing VIM-1 (IHMA599644), 95% growth inhibition
# In short: as §1
# [3] = tested on: Serratia marcescens expressing IMP-1 (CL5741); assay: as above; format: cell-based; settings: for Serratia marcescens expressing IMP-1 (CL5741) MITC95: concentration giving 95% inhibition of bacterial growth; for Serratia marcescens MITC95: Serratia marcescens expressing IMP-1 (CL5741), 95% growth inhibition
# In short: as §1
# [4] = fluorescence assay with CCF2-FA substrate
# [5] = NDM-1 enzyme, CCF2-FA fluorescence assay
# [6] = IMP-1 enzyme, CCF2-FA fluorescence assay
# [7] = VIM-1 IC50, VIM-1 enzyme, CCF2-FA fluorescence assay
# [8] = VIM-1 enzyme, CCF2-FA fluorescence assay, read-out: VIM-1 IC50
# NDM-1, sequence (C7C422 whole entry, looked up, species assumed): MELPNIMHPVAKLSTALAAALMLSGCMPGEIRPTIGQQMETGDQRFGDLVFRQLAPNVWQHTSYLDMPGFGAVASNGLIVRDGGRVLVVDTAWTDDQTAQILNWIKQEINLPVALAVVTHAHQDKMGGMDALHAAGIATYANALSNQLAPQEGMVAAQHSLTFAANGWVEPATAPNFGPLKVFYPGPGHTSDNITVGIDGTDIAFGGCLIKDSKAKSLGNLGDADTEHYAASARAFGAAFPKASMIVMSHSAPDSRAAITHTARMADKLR
# IMP-1, sequence (P52699 whole entry, looked up): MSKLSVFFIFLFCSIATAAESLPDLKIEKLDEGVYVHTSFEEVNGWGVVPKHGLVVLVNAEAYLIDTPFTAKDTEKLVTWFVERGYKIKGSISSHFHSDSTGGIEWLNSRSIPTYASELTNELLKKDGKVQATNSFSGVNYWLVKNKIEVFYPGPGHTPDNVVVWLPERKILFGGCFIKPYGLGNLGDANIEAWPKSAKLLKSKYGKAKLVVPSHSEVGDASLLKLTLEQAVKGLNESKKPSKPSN
SMILES,IC50 (NDM-1; [4]) [nM],IC50 (IMP-1; [4]) [nM],"IC50 (VIM-1; fluorescence assay with CCF2-FA substrate, read-out: VIM-1 IC50) [nM]",Escherichia coli expressing NDM-1 (CLB 30016) MITC95 [1] [µM],Klebsiella pneumoniae expressing VIM-1 (IHMA 599644) MITC95 [2] [µM],Serratia marcescens expressing IMP-1 (CL5741) MITC95 [3] [µM],"IC50 (VIM-1; VIM-1 IC50, fluorescence assay with CCF2-FA substrate) [nM]",IC50 (NDM-1; [5]) [nM],IC50 (IMP-1; [6]) [nM],IC50 (VIM-1; [7]) [nM],Escherichia coli MITC95 [1] [µM],Klebsiella pneumoniae MITC95 [2] [µM],Serratia marcescens MITC95 [3] [µM],IC50 (VIM-1; [8]) [nM]
"NS(=O)(=O)c1nccc(N2CCC(N3CCOCC3)CC2)c1-c1nnn[nH]1 [Example 239, 4-(4-morpholin-4-ylpiperidin-1-yl)-3-(1H-tetrazol-5-yl)pyridine-2-sulfonamide]",383,3710,945,1.563,50,50,,,,,,,,
"NS(=O)(=O)c1nccc(N2CCC(c3ncc[nH]3)CC2)c1-c1nnn[nH]1 [Example 240, 4-[4-(1H-imidazol-2-yl)piperidin-1-yl]-3-(1H-tetrazol-5-yl)pyridine-2-sulfonamide]",418,3410,,1.172,25,37.5,938,,,,,,,
"NS(=O)(=O)c1nccc(N2CCC(c3nnc4ccccn34)CC2)c1-c1nnn[nH]1 [Example 241, 3-(1H-tetrazol-5-yl)-4-(4-[1,2,4]triazolo[4,3-a]pyridin-3-ylpiperidin-1-yl)pyridine-2-sulfonamide]",,,,,,,,67.7,335,774,1.563,>200,12.5,
"NS(=O)(=O)c1nccc(N2CCC(O)CC2)c1-c1nnn[nH]1 [Example 242, 4-(4-hydroxypiperidin-1-yl)-3-(1H-tetrazol-5-yl)pyridine-2-sulfonamide]",,,,,,,,103,1120,,0.3906,6.25,25,270
"NS(=O)(=O)c1nccc(N2CCCC(Cc3cccnc3)C2)c1-c1nnn[nH]1 (stereo not drawn) [Example 243, 4-[3-(pyridin-3-ylmethyl)piperidin-1-yl]-3-(1H-tetrazol-5-yl)pyridine-2-sulfonamide]",,,,,,,,67.1,1510,,18.75,>200,100,204
"CC(O)C1CCN(c2ccnc(S(N)(=O)=O)c2-c2nnn[nH]2)CC1 (stereo not drawn) [Example 244, 4-[4-(1-hydroxyethyl)piperidin-1-yl]-3-(1H-tetrazol-5-yl)pyridine-2-sulfonamide]",,,,,,,,51.2,682,,1.563,37.5,18.75,125
"NS(=O)(=O)c1nccc(-n2cnc3ccccc32)c1-c1nn[nH]n1 [Example 246, 4-(1H-benzo[d]imidazol-1-yl)-3-(2H-tetrazol-5-yl)pyridine-2-sulfonamide]",,,,,,,,30.2,2800,,0.5859,12.5,150,78.3
"Cc1cnc(-c2cccc(S(N)(=O)=O)c2-c2nn[nH]n2)cn1 [Example 248, 3-(5-Methylpyrazin-2-yl)-2-(2H-tetrazol-5-yl)benzenesulfonamide]",,,,,,,,4.49,134,,0.1875,12.5,4.688,132
NS(=O)(=O)c1c(Cc2ccccc2)ccc(-c2ccc(C3CCNCC3)cc2)c1-c1nnn[nH]1 [Example 261],,,,,,,,6.59,1.72,,6.25,100,1.563,10.2
"Cc1ccc(-c2ccc(Cl)c(S(N)(=O)=O)c2-c2nn[nH]n2)cc1 [Example 263, 4-chloro-4′-methyl-2-(2H-tetrazol-5-yl)-[1,1′-biphenyl]-3-sulfonamide]",,,,,,,,3.27,21,,0.7813,18.75,0.7813,11.5
"Nc1ccc(-c2ccc(Br)c(S(N)(=O)=O)c2-c2nn[nH]n2)cn1 [Example 264, 3-(6-aminopyridin-3-yl)-6-bromo-2-(2H-tetrazol-5-yl)benzenesulfonamide]",,,,,,,,4.61,16.9,,0.04688,1.781,0.3828,4.4
"Nc1ccc(-c2ccc(C(F)(F)F)c(S(N)(=O)=O)c2-c2nn[nH]n2)cn1 [Example 265, 3-(6-aminopyridin-3-yl)-2-(2H-tetrazol-5-yl)-6-(trifluoromethyl)benzenesulfonamide]",,,,,,,,2.65,6.93,1.26,0.125,4.775,0.4271,
"NS(=O)(=O)c1c(Br)ccc(-c2ccnc3ccccc23)c1-c1nn[nH]n1 [Example 266, 6-bromo-3-(quinolin-4-yl)-2-(2H-tetrazol-5-yl)benzenesulfonamide]",,,,,,,,2.08,12.6,,3.125,9.375,0.7813,0.689
"Cc1ccc(-c2ccc(Br)c(S(N)(=O)=O)c2-c2nn[nH]n2)cc1 [Example 267, 4-bromo-4′-methyl-2-(2H-tetrazol-5-yl)-[1,1′-biphenyl]-3-sulfonamide]",,,,,,,,1.81,2,,0.7383,6.25,0.2552,2.95
"Cc1ccc(-c2ccc(C(F)(F)F)c(S(N)(=O)=O)c2-c2nn[nH]n2)cc1 [Example 268, 4′-methyl-2-(2H-tetrazol-5-yl)-4-(trifluoromethyl)-[1,1′-biphenyl]-3-sulfonamide]",,,,,,,,2.01,1.64,,2.229,9.375,0.25,0.898
"CS(=O)(=O)Nc1ccc(-c2ccc(Br)c(S(N)(=O)=O)c2-c2nn[nH]n2)cc1 [Example 270, 4-bromo-4′-(methylsulfonamido)-2-(2H-tetrazol-5-yl)-[1,1′-biphenyl]-3-sulfonamide]",,,,,,,,2.56,4.86,,1.563,6.25,0.3906,1.68
"NS(=O)(=O)c1c(Br)ccc(-c2ccc3c(c2)CNC3)c1-c1nn[nH]n1 [Example 272, 6-bromo-3-(isoindolin-5-yl)-2-(2H-tetrazol-5-yl)benzenesulfonamide]",,,,,,,,7.17,49,,0.7813,0.7813,1.563,5.54
"NS(=O)(=O)c1c(C(F)(F)F)ccc(-c2ccnc3ccccc23)c1-c1nn[nH]n1 [Example 273, 3-(quinolin-4-yl)-2-(2H-tetrazol-5-yl)-6-(trifluoromethyl)benzenesulfonamide]",,,,,,,,0.581,3.21,,4.688,6.25,0.3906,0.165
